As usually defined, the IC50 is the concentration that inhibits the measured activity by half. Low readings indicate greater potency, high ones weaker potency.

Drawing on patent US20250049787A1, “TREATMENT FOR ACUTE MYELOID LEUKEMIA OR LYMPHOMA” (UNIVERSITY HEALTH NETWORK, priority 2021, published 2025), this text covers IC50 for one compound.

Assay [1] has as its system FLT3-ITD-expressing 32D cells. Kind of assay: Growth inhibition, 32D transfectants. It is filed as cell-based. The conditions noted are these: 32D transfectant FLT3-ITD, without cytokines. On the procedure:
(§1) Cell lines were obtained from American Type Culture Collection (ATCC) and maintained according to the supplier's instructions, and from Dr. Mark Minden (Princess Margaret Cancer Centre, Toronto, Canada). Short tandem repeat (STR) profiling was used to verify authenticity of the cell lines. Peripheral blood from healthy human donors was obtained from the Hematology Malignancy Tissue Bank at the University Health Network. Peripheral blood mononuclear cells (PBMC) were prepared from the blood by density gradient centrifugation using Ficoll-Paque PLUS by manufacturer's instructions (GE Healthcare Life Sciences). […] Compound (I) tartrate was prepared as a 10 mM stock solution in 100% DMSO. The stock solution was diluted with RPMI-1640 (Invitrogen) containing 10% FBS (fetal bovine serum) such that the final concentrations ranged from 300 fM to 300 μM. Aliquots (20 μL) from each concentration were overlaid to 180 μL of pre-seeded cells to achieve final concentrations of 30 fM to 30 μM. After 3 days, cell growth in each well was assessed by Alamar Blue assay reagent (Invitrogen). Raw fluorescence (λEM=590 nm) values were adjusted by subtracting the average of the baseline readings from untreated cells assessed one day after cell seeding. Relative cell growth was calculated by comparing to DMSO-treated cells. […]

For assay [2], the system named is Wild-type FLT3-expressing 32D cells. In words: Growth inhibition, 32D transfectants. The class given is cell-based. To be noted: 32D transfectant wild-type FLT3, 50 ng/ml human FLT3 ligand. The protocol: as §1

Where a name gives a salt, the structure may show the parent alone.

In the case of `CN1CCN(c2ccc3nc(-c4c(N)c5ccsc5[nH]c4=O)[nH]c3c2)CC1` [Compound (I) tartrate, 4-amino-5-(6-(4-methylpiperazin-1-yl)-1H-benzo[d]imidazol-2-yl)thieno[2,3-b]pyridin-6(7H)-one], the results for the IC50 in assay [1] and in assay [2] were 6.3 nM and 1650 nM, respectively.
